Data set [1] has as its system Straub Tail induced by oxymorphone. The data set is described as follows: Oxymorphone Straub Tail antagonism (antagonist activity). The format is in vivo, mouse. Conditions: for ED50: sc, mouse, subcutaneous, hydrochloride salts of IX and X, oxymorphone 2 mg./kg. s.c. The method, then:
^2 Antagonism of Straub Tail induced by oxymorphone (2 mg./kg. s.c.)

The subject of data set [2] is analgesic effect induced by morphine. The data set is described as follows: Morphine antagonist rat tail flick (antagonist activity). The conditions noted are these: for ED50: Rattus norvegicus, sc, read-out: ED50 Antagonist Activity, Morphine Antagonist Rat Tail Flick.
The subject of data set [3] is phenylquinone induced writhing. The data set is described as follows: Mouse phenylquinone writhing (analgesic activity). The format is in vivo. The conditions noted are these: for ED50: sc, mouse, subcutaneous, hydrochloride salts of IX and X, 50 percent reduction in number of writhings; for analgesic potency relative to pentazocine: in words, compared with pentazocine. The source says:
^1 A 50 percent reduction in number of phenylquinone induced writhing
[Siegmumd, E.A., et al., Proc. Soc. Biol. & Med 95, p. 729 (1957)].

The conditions of data set [4]: Chemical Abstracts 63, 18050-18051 (Belgian Pat. No. 644,679); cited from earlier work.
For data set [5] the following is noted: Chemical Abstracts 63, 18050-18051 (Belgian Pat. No. 644,679); cited from earlier work. The source holds these as a separate data set.
Data set [6] can be described thus: Behavioral studies in the dog. Type of data set: in vivo. Conditions: subcutaneous dose of 2 mg./kg. How it is done: The normal parenteral dosage of the compounds of this invention in adult humans is about 0.25 to 16 mg. three to four times a day.
The conditions of data set [7]: J. Med. Chem. 12, 845-847 (1969); cited from earlier work.
The conditions of data set [8]: monkey; J. Med. Chem. 12, 845-847 (1969); cited from earlier work.

Some results are limits rather than exact numbers.

Consider `CC(C)=CCN1CCC2(C)c3cc(O)ccc3CC1C2C` (centres unmarked) [Pentazocine, reference compound], for which the ED50 – broadly, the dose at which the effect has come halfway, by size or by number of responders – was 12 mg/kg in data set [1], 12.2 mg/kg in data set [2] and 3.7 mg/kg in data set [3].

Take `Oc1ccc2c(c1)[C@@]13CCCC[C@H]1[C@@H](C2)N(CC1CCC1)CC3` (stereo in doubt) [N-cyclobutylmethyl-3-hydroxymorphinan]: in data set [4], the “antagonism to meperidine (in words)” value is listed as “antagonists to meperidine”. For the same molecule, in data set [5], the “analgesic activity (in words)” value is listed as “analgesics”.

As to `Oc1ccc2c(c1)[C@]13CCN(CC4CC4)[C@H](C2)[C@@H]1CCc1ccccc13` (relative stereo) [IX, 3-Hydroxy-17-cyclopropylmethyl-5,6-benzomorphinan], the ED50 was around 40 mg/kg in data set [1], 2.3 mg/kg in data set [2] and around 4.5 mg/kg in data set [3]. Moreover, the “antagonist activity (in words)” value in data set [1] (test not given) is given as “little antagonist activity”. Besides, the “analgesic potency relative to pentazocine” value in data set [3] is on record as “about the same analgesic potency as pentazocine”. Moreover, in data set [6], the “side effects in behavioral studies” value is given as “free of side effects”.

For `Oc1ccc2c(c1)[C@]13CCN(CC4CCC4)[C@H](C2)[C@@H]1CCc1ccccc13` (relative stereo) [X, 3-Hydroxy-17-cyclobutylmethyl-5,6-benzomorphinan], in data set [1], the ED50 was above 40 mg/kg. Also, the “times more active as an antagonist in the rat than pentazocine” value in data set [2] (rat, relative to pentazocine) is on record as “approximately 5 times”. In data set [3], the “analgesic potency relative to pentazocine” value is listed as “about the same analgesic potency as pentazocine” and the ED50 is around 4.5 mg/kg. The “side effects in behavioral studies” value in data set [6] is “free of side effects”.

In the case of `Oc1ccc2c(c1)[C@@]13CCCC[C@H]1[C@@H](C2)N(CC1CC1)CC3` [N-cyclopropylmethyl-3-hydroxymorphinan], the “antagonism to meperidine (in words)” value in data set [4] is recorded as “antagonists to meperidine”. For the same molecule, the “analgesic activity (in words)” value in data set [5] was “analgesics”.

Regarding `NC(=O)N1CCC2CC1Cc1ccc(O)cc12` (centres unmarked) [3-carboxamido-1,2,3,4,5,6-hexahydro-2,6-methano-3-benzazocin-8-ol], in data set [7], the “analgetic effect, oral (in words)” value is reported as “orally effective analgetic”. In addition, in data set [8], the “physical dependence capacity (in words)” value is listed as “unusual freedom from physical dependence capacity in the monkey”.

(Values after patent US3931188A, “3-Hydroxy-5,6-benzomorphinan derivatives” (Bristol-Myers Company, priority 1974, dated 1976).)
